Results published in US9133232B2, “Fused pentacyclic polyethers” (priority 2003, dated 2015).
Like-named read-outs stand apart in the source and are kept apart here.

Legend:
[1] = tested on: Male mosquito fish; type: in vivo; details: for death of fish exposed to brevenal alone: monitored 24 h
Description: Male mosquito fish (n=104) were used in this assay. Fish were placed individually in 50 mL beakers containing 20 mL water. The test compounds (PbTx-2 and brevenal) were dissolved in EtOH at a concentration of 0.1 mg/mL and added to the fish in a total of 200 μL EtOH. The control fish received 200 uL EtOH. Fish were exposed to toxin alone (1 μg/mL water), brevenal alone (1 or 2 μg/mL water), or both brevenal (1.0 μg/mL water and toxin (1.0 μg/mL water) with the brevenal being added 3 min. before the toxin. After addition of the difference compounds the fish were monitored for 24 h. or until the time of death. Significant differences were determined using a two-way Student's t-test.

[2] = molecular target: rat brain synaptosome; assay: Competitive rat brain synaptosome assay (displacement of tritiated brevetoxin PbTx-2); type: binding; details: for Ki / EC50: competition with tritiated PbTx-2; for EC50: read-out: approximate EC50; for displacement of tritiated brevetoxin PbTx-2: compound added at about 1000× the concentration of the tritiated PbTx-2
Description: Competitive rat brain synaptosome assays were performed as described in Poli et al., 1986. […];

Molecule: C=C/C=C\CC[C@H]1O[C@H]2CC[C@@]3(C)O[C@H]4[C@@H](O)C[C@@]5(C)O[C@@H](CC/C=C(C)/C(C)=C/C=O)[C@@H](C)C[C@@H]5O[C@@H]4C[C@@H]3O[C@@H]2CC[C@@]1(C)O [brevenal]
- time of death after exposure, fish given brevenal and PbTx-2 ([1]; brevenal 1.0 μg/mL water added 3 min. before PbTx-2 1.0 μg/mL water): about 17 min.
- prolonging of life versus PbTx-2 only ([1]; brevenal 1.0 μg/mL water added 3 min. before an equal concentration of PbTx-2): ~2.5 fold
- death of fish exposed to brevenal alone ([1]; brevenal alone 1 μg/ml water): did not die after 24 h
- death of fish exposed to brevenal alone ([1]; brevenal alone 2 μg/ml water): did not die after 24 h
- Ki [2]: 1860 nM
- EC50 [2]: ~3690 nM
- displacement of tritiated brevetoxin PbTx-2 [2]: ~80%

Molecule: di-O-Me brevenal
- Ki [2]: 680 nM
- EC50 [2]: ~1350 nM
- displacement of tritiated brevetoxin PbTx-2 [2]: ~80%
